Results as given in PubChem BioAssay AID1645868 (Buhrlage Lab, Dana-Farber Cancer Institute and Novartis …, 2021).
pIC50: −log10 of the molar value. Active and inactive are the calls of the source.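 Rule for the calls: active = maximal percent inhibition of the deubiquitinase OTUD3 of at least 30% across the tested doses; inactive = the rest.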 Positions of bridges follow the written chain, without caps; N, C: chain ends. Residues, ends and D or L forms follow the SMILES beside them. ξ: configuration not given here. *: point of attachment. Pentadecanoyl(3ξ-OH,15-Gua) = N=C(N)NCCCCCCCCCCCCC(O)CC(=O)*

Target: OTU domain-containing protein 3 (Homo sapiens) (UniProt Q5T2D3)
Sequence (Q5T2D3 whole entry, looked up, the tested form may be a part): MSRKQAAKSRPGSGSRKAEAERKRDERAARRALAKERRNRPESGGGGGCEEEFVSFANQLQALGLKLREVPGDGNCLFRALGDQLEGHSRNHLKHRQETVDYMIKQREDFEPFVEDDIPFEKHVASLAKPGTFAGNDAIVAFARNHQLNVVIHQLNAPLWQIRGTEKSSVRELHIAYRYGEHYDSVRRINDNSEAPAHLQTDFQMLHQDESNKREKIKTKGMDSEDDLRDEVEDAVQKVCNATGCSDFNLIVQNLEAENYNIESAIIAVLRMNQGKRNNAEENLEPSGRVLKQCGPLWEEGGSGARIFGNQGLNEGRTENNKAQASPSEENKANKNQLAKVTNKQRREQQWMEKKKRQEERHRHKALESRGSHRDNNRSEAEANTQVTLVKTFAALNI
Experiment: Validation of screening hits, potency titration, in vitro enzymatic, OTU domain-containing protein 3 DUB inhibitors (AID 1645868)
Conditions: purified OTUD3, ubiquitin-rhodamine cleavage fluorescence, 2 h

Row | pIC50 | IC50 | SMILES
1 | 4.42 | – | Cc1nc(C(=O)N[C@@H](C)C(=O)NCc2ccc3c(c2)OCO3)cc2c1[nH]c1ccccc12
2 | – | > 50 µM (inactive) | COc1ccccc1-c1nc(Cn2nnc(C(=O)Nc3cc(C)cc(C)c3)c2N)c(C)o1
3 | – | > 50 µM (inactive) | O=C(Nc1ccc2c(c1)OCCO2)C1CCC(Cn2cnc3ccccc3c2=O)CC1 (stereo not given)
4 | – | > 50 µM (inactive) | Cc1c(C)n(-c2ccc(Br)cn2)c2ncnc(NCCCO)c12
5 | 4.36 | – | COc1ccc(NC(=O)c2sc(N3CCOCC3)nc2-c2ccccc2)c(OC)c1
6 | – | > 50 µM (inactive) | O=C1CC(c2ccco2)Cc2[nH]c(=O)c(-c3nc(-c4ccc(Cl)cc4)cs3)cc21 (stereo not given)
7 | – | > 50 µM (inactive) | Oc1sc(C=Nc2cc(Cl)ccc2Cl)c2ccccc12
8 | – | > 50 µM (inactive) | Cc1cc(C(=O)N2CCOC3(CC=CCN(CCc4ccccc4)C3=O)C2)n2nccc2n1 (stereo not given)
9 | – | > 50 µM (inactive) | CC(=O)CN1CC2(CCN(Cc3ccc(F)cc3)CC2)COc2ccccc2S1(=O)=O
10 | – | > 50 µM (inactive) | FC(F)(F)c1ccccc1CCN1CCc2nc3ncc(Cl)cc3cc2C1
11 | – | > 50 µM (inactive) | CC(Nc1ncnc2c1sc1nc(N3CCOCC3)c3c(c12)CCC3)c1ccccc1 (stereo not given)
12 | – | > 50 µM (inactive) | CCCNc1cc(-c2ccccc2)nc2nc(-c3cccnc3)nn12
13 | – | > 50 µM (inactive) | COc1ccc(CCNC(=O)c2c(N)n(-c3cccc(Cl)c3)c3nc4ccccc4nc23)cc1
14 | 4.69 | – | O=C(NCc1ccc(-c2nc3cnccc3o2)cc1)c1ccccc1F
15 | – | > 50 µM (inactive) | COC(=O)CC1CC23OC2(C(=O)c2c(O)cccc2C3=O)C(C)O1 (stereo not given)
16 | – | > 50 µM (inactive) | Fc1cccc(Cn2cc(-c3noc(-c4cccnc4)n3)nn2)c1
17 | 4.59 | – | CCn1c(SCC(=O)c2c(N)n(CC(C)C)c(=O)n(C)c2=O)nnc1-c1ccccc1
18 | – | > 50 µM (inactive) | COc1ccc(-c2cc(-c3ccc(O)cc3)nc(N)c2C#N)cc1OC
19 | – | > 50 µM (inactive) | CN(C)C(=O)CSc1nnc(-c2cccc(Cl)c2)n1-c1ccc(Cl)c(C(F)(F)F)c1
20 | – | > 50 µM (inactive) | O=C(Nc1ccc2c(c1)OCCO2)Nc1nnc(CC(=O)N2CCCCC2)s1
21 | – | > 50 µM (inactive) | Cc1ccc(-n2c(-c3ccccc3)cn3c4c(=O)[nH]c(=O)n(C)c4nc23)cc1Cl
22 | – | > 50 µM (inactive) | Cc1ccc(C2=Nc3ccccc3N(CC(=O)Nc3cccc(C)c3C)C(=O)C2)cc1C
23 | – | > 50 µM (inactive) | O=c1[nH]c(C2CCN(S(=O)(=O)c3ccc(S(=O)(=O)NC4CCCC4)cc3)CC2)nc2c1nnn2Cc1cccc(Cl)c1

Row | pIC50 | IC50 | SMILES
24 | 4.54 | – | CCOc1ccc2[nH]c3c(=O)n(CCc4ccc(OC)cc4)cnc3c2c1
25 | – | > 50 µM (inactive) | COc1ccccc1-c1ccc(CN2[C@@H](c3ccccc3)C[C@@H]3NC(=O)CCC[C@H]32)cc1
26 | 4.72 | – | Cc1c(-c2nsc(NC(=O)c3ccc(Cl)cc3)n2)nnn1-c1ccccc1F
27 | – | > 50 µM (inactive) | O=C(O)c1nccnc1C(=O)N1CCc2ccccc2C1
28 | – | > 50 µM (inactive) | Cc1ncncc1C(=O)N1CCCC(C)(c2ncc(Cc3cccc(F)c3)o2)C1 (stereo not given)
29 | – | > 50 µM (inactive) | N#Cc1ccccc1COC(=O)c1ccc2ccccc2n1
30 | – | > 50 µM (inactive) | CC(C)NC(=O)Cn1ccn2nc(-c3ccc(Cl)cc3)cc2c1=O
31 | – | > 50 µM (inactive) | CN(C)C1CCN(C(=O)c2cc(-c3ccn(-c4ccccc4)n3)n3ccccc23)CC1
32 | – | > 50 µM (inactive) | CC(C)CCCCCCCCCCC(=O)N(C)[C@H](CO)C(=O)N[C@H](C)C(=O)NCC(=O)N(C)C1C(=O)N[C@@H](C)C(=O)NC(C(=O)O)Cc2ccc(O)c(c2)-c2cc1ccc2O (stereo not given in full)
33 | 4.44 | – | CC1NC(=O)C(CC(N)=O)NC(=O)C(C(C)O)NC(=O)C(Cc2ccc(O)cc2)NC(=O)C(C(C)C)NC(=O)C(NC(=O)CC(O)CCCCCCCCCCCCN=C(N)N)C(C)OC1=O (stereo not given) ({Pentadecanoyl(3ξ-OH,15-Gua)}-TVYTNA; ester 1-C; configuration not given here)
34 | – | > 50 µM (inactive) | O=C(c1ccco1)N1CCCC2(C1)Nc1cccnc1NC2=NC1CCCC1 (stereo not given)
35 | – | > 50 µM (inactive) | CCn1c(SCc2nc(N)c3ccccc3n2)nc2ccccc21
36 | 4.56 | – | Cc1cccc(-n2ccnc(SCC(=O)Nc3ccc(Cl)cc3F)c2=O)c1
37 | 4.60 | – | COCCNC(=O)c1ccc(-c2ccc(N3CCCCC3)nc2)cc1
38 | – | > 50 µM (inactive) | Cc1ccc(C)c(CSC2=NCCN2C(=O)c2ccco2)c1
39 | 4.69 | – | Cc1ccc(-c2nc(NC(=O)COc3ccc(Cl)cc3)no2)cc1
40 | – | > 50 µM (inactive) | COc1ccc(/C=C/C(=O)Nc2ccc3c(c2)OCCO3)cc1Br
41 | 4.70 | – | Nc1c(C(=O)NCc2ccc3c(c2)OCO3)nnn1Cc1ccc(Br)cc1F
42 | – | > 50 µM (inactive) | COc1ccccc1CNC(=O)c1ccc(CSc2nc3ccncc3n2Cc2ccccc2)cc1
43 | – | > 50 µM (inactive) | CN(c1ccccc1)c1nc(=O)n(CC(=O)Nc2ccc3c(c2)OCCO3)c2ccccc12
44 | 4.43 | – | O=C(Nc1cccc(-c2noc(C3CCC3)n2)c1)C1CC(=O)N(c2ccccc2)C1 (stereo not given)
45 | – | > 50 µM (inactive) | O=C(COc1nc2ccccc2nc1N1CCOCC1)Nc1cccc(S(=O)(=O)N2CCCCC2)c1
46 | 4.66 | – | COc1ccc(CCNC(=O)CCCn2c(=O)c3ccccc3n(CC(=O)OCc3ccccc3)c2=O)cc1OC

Row | pIC50 | IC50 | SMILES
47 | 5.11 | – | CCC(=O)Nc1nc2cc(NC(=O)Nc3cc(C)cc(C)c3)ccc2s1
48 | – | > 50 µM (inactive) | CC(=O)c1cccc(NC(=O)c2ccc(-c3csc(C)n3)cc2)c1
49 | 4.90 | – | Cc1cc(C)c(NC(=O)Cn2c(=O)n(CCC(=O)NCc3ccc4c(c3)OCO4)c(=O)c3sccc32)c(C)c1
50 | – | > 50 µM (inactive) | CC1=C2C(=NCCN1)C(=O)N(c1ccccc1)C2c1cccnc1 (stereo not given)
51 | – | > 50 µM (inactive) | O=C(Nc1cc(Cl)ccc1-n1cncn1)c1ccc(S(=O)(=O)N2CCCC2)cc1
52 | – | > 50 µM (inactive) | COc1cc(O)c2c(O)c3c(cc2c1)CC(C)OC3=O (stereo not given)
53 | 4.48 | – | COc1ccc(-n2ccn3c(CCC(=O)NCc4ccc(F)cc4)nnc3c2=O)cc1
54 | – | > 50 µM (inactive) | COc1ccc(CC(NC(C)=O)C(=O)NC2CCN(c3c(Cc4ccccc4)c(C)nc4ncnn34)CC2)cc1OC (stereo not given)
55 | – | > 50 µM (inactive) | CC(C)c1cc(Nc2cccc(F)c2)n2nc(-c3cccnc3)nc2n1
56 | – | > 50 µM (inactive) | Cc1ccc2c(c1)N(Cc1nc(-c3ccc(F)cc3)no1)C(=O)CO2
57 | – | > 50 µM (inactive) | O=C(Nc1cccc(S(=O)(=O)N2CCCC2)c1)c1ccc2c(=O)n3c(nc2c1)CCCCC3
58 | – | > 50 µM (inactive) | CC(=O)c1oc2nc3c(c(-c4ccc(Cl)cc4)c2c1N)CCc1ccccc1-3
59 | 4.46 | – | Cc1ccc(-c2c(C(=O)Nc3ccc(S(N)(=O)=O)cc3)oc(=O)c3ccccc23)cc1
60 | – | > 50 µM (inactive) | COc1cccc(-n2c(=O)[nH]c3c(C(N)=O)nc(-c4ccc(OCc5ccccc5)cc4)nc32)c1
61 | – | > 50 µM (inactive) | COc1cccc(CNC(=O)C2=Cc3cccc(OC)c3OC2)c1
62 | – | > 50 µM (inactive) | Cc1nc2nc(SCc3nc4ccccc4n3C)[nH]c2cc1Br
63 | – | > 50 µM (inactive) | O=C(NCCn1ccc2ccccc21)c1cc2ccccc2oc1=O
64 | – | > 50 µM (inactive) | COc1cc2c(cc1OC)C(COc1ccccc1OC)N(C(=O)c1ccc3ccccc3c1)CC2 (stereo not given)
65 | 4.57 | – | COc1ccc(-n2c(SCC(=O)c3ccc(F)cc3)nnc2-c2cccnc2)cc1
66 | – | > 50 µM (inactive) | Cn1c(CCN2CCCC2)nc2cc(NS(=O)(=O)c3ccccc3)ccc21
67 | – | > 50 µM (inactive) | CC(c1ccccc1)c1nc(-c2ccc(=O)[nH]c2)no1 (stereo not given)
68 | – | > 50 µM (inactive) | CN(C)c1ccc(CCN2CCc3nc4cccnc4cc3C2)cc1
69 | – | > 50 µM (inactive) | Cc1ccc(-c2ccc(N3CCOCC3)nn2)cc1S(=O)(=O)N1CCOCC1

Row | pIC50 | IC50 | SMILES
70 | – | > 50 µM (inactive) | CCOC(=O)c1cc2c(ccn2C)n1CC(=O)N1CCC(C)CC1
71 | 4.51 | – | Cc1ccc(-n2c(=O)[nH]c3c(C(N)=O)nc(-c4cccnc4)nc32)cc1
72 | – | > 50 µM (inactive) | Cc1ccccc1Cn1cc(SCC(=O)Nc2ccc3c(c2)OCCO3)c2ccccc21
73 | – | > 50 µM (inactive) | CC1CCCN1C(=O)c1ccn(-c2ccc3ccc(-c4cccnc4)cn23)n1 (stereo not given)
74 | – | > 50 µM (inactive) | CCN1C(=O)c2cccnc2Sc2cc(NC(=O)c3ccc(Cl)s3)ccc21
75 | 5.17 | – | CC1(C)Cc2c(sc3nc(Cc4ccccc4)nc(SCC(=O)Nc4ccccc4)c23)CO1
76 | – | > 50 µM (inactive) | c1ccc2c(Cc3nc(-c4ccncc4)no3)cccc2c1
77 | – | > 50 µM (inactive) | COc1ccccc1NC(=O)c1nn(-c2cccc(F)c2)c(OC)cc1=O
78 | – | > 50 µM (inactive) | Cc1cc(C)nc(SCCn2c(N3CCC(Cc4ccccc4)CC3)nc3c2c(=O)n(C)c(=O)n3C)n1
79 | – | > 50 µM (inactive) | COc1ccc(Nc2nc(C(=O)NCc3ccccc3)cc3occc23)cc1
80 | – | > 50 µM (inactive) | CCn1c(=O)c2ccccc2n(Cc2nc(-c3ccccc3OC)no2)c1=O
81 | – | > 50 µM (inactive) | COc1ccc(Nc2ncc(C(=O)Nc3ccc(Oc4ccccc4)cc3)c3ccccc23)cc1
82 | – | > 50 µM (inactive) | Nc1ccc(F)c(NS(=O)(=O)c2ccccc2)c1
83 | – | > 50 µM (inactive) | CCNc1nc(SCC(C)=O)nc2sc3c(c12)CCC(C)C3 (stereo not given)
84 | – | > 50 µM (inactive) | COc1ccc(C(=O)Nc2sc3c(c2C(=O)NCc2cccnc2)CCCC3)cc1
85 | – | > 50 µM (inactive) | CNC(=O)c1cc2nc(N(C)C)n(-c3ccccc3)c2s1
86 | 4.66 | – | Cc1ccc(C)c(NC(=O)CCc2nc(CSc3nc4ccccc4o3)no2)c1
87 | – | > 50 µM (inactive) | O=S(=O)(c1ccccc1)N1CCN2Cc3ccccc3N(Cc3ccccc3)CC2C1 (stereo not given)
88 | – | > 50 µM (inactive) | CNc1nc2c(c(=O)n1C)CN(C(=O)Nc1cccc3ccccc13)CC2
89 | 4.63 | – | O=C(/C=C/c1ccco1)c1cccc([N+](=O)[O-])c1

Row | SMILES | pIC50 | IC50
90 | O=C1c2c(O)c(Cl)cc3c2[C@@]2(Oc4cc(Cl)c(O)c5c4[C@]3(O2)[C@@H]2O[C@@H]2C5=O)[C@@H]2O[C@H]12 | 6.15 | –
